Measurements: publication PMC9040839 (mBio, 2022)
Where “and” joins values, the source holds several entries; their conditions need not be identical. Identical values can stand only once. Entries after “also recorded” stand apart in the source; their conditions may differ. Like-named read-outs stand apart in the source and are kept apart here.

How the values were obtained:
[1] = tested on: P. aeruginosa PAO1; assay: Growth experiments with Biolog compound array PM2A; format: cell-based, Pseudomonas aeruginosa; conditions: M9 minimal medium, 96-well plate, 48 h, 37°C
Protocol: PAO1 was grown overnight in M9 minimal medium containing 10 mM glucose. Cultures were washed twice and then diluted to an OD600 of 0.02 in either M9 or M8 medium (M9 minimal medium without NH4Cl) containing 10 mM glucose and medium supplemented with each of the compounds present in the Biolog compound array PM2A (https://www.biolog.com/wp-content/uploads/2020/04/00A-042-Rev-C-Phenotype-MicroArrays-1-10-Plate-Maps.pdf) as sole carbon source. Then, 200 μL of these cultures were transferred into microwell plates, and growth at 37°C was followed on a Bioscreen microbiological growth analyzer (Oy Growth Curves Ab Ltd., Helsinki, Finland).

[2] = tested on: P. aeruginosa PAO1; format: cell-based, Pseudomonas aeruginosa; conditions: capillary assay; for concentration of maximal chemotaxis response / response threshold of chemotaxis: 30 min; for maximal accumulation: at 10 μM
Protocol: (§1) Overnight cultures in M9 minimal medium supplemented with 6 mg/L Fe-citrate, trace elements ([89]), and 15 mM glucose were used to inoculate fresh medium to an OD660 of 0.05. Cells were cultured at 30°C (Pectobacterium atrosepticum, Pantoea agglomerans, Serratia plymuthica, Pseudomonas stutzeri, Agrobacterium tumefaciens, Dickeya solani, Pseudomonas savastanoi pv. savastanoi) or 37°C (P. aeruginosa, E. coli, Salmonella enterica serovar Typhimurium) to an OD660 of 0.4 to 0.5. Subsequently, cells were washed twice by centrifugation (1,667 × g for 5 min at room temperature) and resuspension in chemotaxis buffer (50 mM KH2PO4/K2HPO4, […], 0.05% [vol/vol] glycerol, pH 7.0) and then resuspended in the same buffer at an OD660 of 0.1. Aliquots (230 μL) of the resulting cell suspension were placed into the wells of 96-well microtiter plates. Then, 1-μL capillaries (Microcaps, Drummond Scientific) were heat-sealed at one end and filled with buffer (control) or chemoeffector solution prepared in chemotaxis buffer. The capillaries were rinsed with sterile water and immersed into the bacterial suspensions at their open ends. After 30 min, capillaries were removed from the wells, rinsed with sterile water, and emptied into 1 mL of chemotaxis buffer. Serial dilutions were plated onto M9 minimal medium plates supplemented with 20 mM glucose, incubated at 30°C or 37°C prior to colony counting. Data were corrected with the number of cells that swam into buffer containing capillaries. Data are the means and standard deviations of three biological replicates conducted in triplicate.

[3] = target: PctD-Tar hybrid (Pseudomonas aeruginosa, UniProt Q9HVF8); assay: cell-based
Sequence of PctD-Tar hybrid (Q9HVF8 entry or part of it): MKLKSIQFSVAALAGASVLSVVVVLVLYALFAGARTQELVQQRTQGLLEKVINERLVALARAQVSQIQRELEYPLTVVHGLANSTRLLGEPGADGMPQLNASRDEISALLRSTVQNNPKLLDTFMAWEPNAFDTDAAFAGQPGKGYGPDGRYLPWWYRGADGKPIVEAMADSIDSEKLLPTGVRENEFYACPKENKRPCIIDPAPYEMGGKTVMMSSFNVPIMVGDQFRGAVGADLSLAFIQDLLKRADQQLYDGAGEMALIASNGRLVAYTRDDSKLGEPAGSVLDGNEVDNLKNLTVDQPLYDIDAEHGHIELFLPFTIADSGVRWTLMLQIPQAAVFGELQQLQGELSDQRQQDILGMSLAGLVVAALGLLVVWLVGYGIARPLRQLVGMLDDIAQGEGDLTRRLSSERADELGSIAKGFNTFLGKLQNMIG
Sequence of PctD-Tar hybrid (P07017 267-553, further chain): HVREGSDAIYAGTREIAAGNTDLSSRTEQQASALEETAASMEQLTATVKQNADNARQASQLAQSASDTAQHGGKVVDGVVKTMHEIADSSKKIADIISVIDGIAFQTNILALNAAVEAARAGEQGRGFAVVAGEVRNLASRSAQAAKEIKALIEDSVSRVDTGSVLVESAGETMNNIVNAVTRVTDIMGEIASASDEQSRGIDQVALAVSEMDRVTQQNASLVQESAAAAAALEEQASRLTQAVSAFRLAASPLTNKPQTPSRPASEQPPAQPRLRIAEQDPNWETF

[4] = target: PctD(PA4633)-LBD (Pseudomonas aeruginosa, UniProt Q9HVF8); assay: biochemical; conditions: for KD / ΔH: ITC, 25°C, pH 7.5
Sequence of PctD(PA4633)-LBD (Q9HVF8 entry or part of it): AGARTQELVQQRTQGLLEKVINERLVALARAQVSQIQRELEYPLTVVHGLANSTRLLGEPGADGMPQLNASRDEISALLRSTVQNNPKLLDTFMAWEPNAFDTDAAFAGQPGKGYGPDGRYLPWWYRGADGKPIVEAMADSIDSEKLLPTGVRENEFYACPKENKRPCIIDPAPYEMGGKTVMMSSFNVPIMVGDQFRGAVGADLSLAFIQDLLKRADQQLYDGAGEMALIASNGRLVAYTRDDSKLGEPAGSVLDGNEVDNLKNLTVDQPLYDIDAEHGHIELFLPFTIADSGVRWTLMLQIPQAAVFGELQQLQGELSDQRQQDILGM
Protocol: Measurements were made using a VP-ITC microcalorimeter (MicroCal, Inc., Northampton, MA) at 25°C. […] The mean enthalpies from the injection of ligands into the buffer were subtracted from raw data prior to data fitting using the “one binding site model” of the MicroCal version of the ORIGIN software.

[5] = target: PacA(ECA_RS10935)-LBD (Pectobacterium atrosepticum, UniProt Q6D515); assay: Isothermal titration calorimetry of PacA-LBD with ligands; format: binding, P. atrosepticum SCRI1043; conditions: ITC, 25°C, pH 7.0
Sequence of PacA(ECA_RS10935)-LBD (Q6D515 entry or part of it): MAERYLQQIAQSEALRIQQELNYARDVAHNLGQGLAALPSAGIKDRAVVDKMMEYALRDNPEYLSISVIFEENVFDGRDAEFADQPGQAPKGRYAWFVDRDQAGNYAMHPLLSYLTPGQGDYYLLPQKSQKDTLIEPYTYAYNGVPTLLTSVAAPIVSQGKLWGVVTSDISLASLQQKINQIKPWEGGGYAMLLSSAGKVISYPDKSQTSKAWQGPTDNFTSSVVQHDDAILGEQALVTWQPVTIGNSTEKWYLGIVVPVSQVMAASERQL
Protocol: Measurements were made using a VP-ITC microcalorimeter (MicroCal, Inc., Northampton, MA) at 25°C. PA4633-LBD was dialyzed into 5 mM Tris, 5 mM PIPES [piperazine-N,N′-bis(2-ethanesulfonic acid)], 5 mM MES (morpholineethanesulfonic acid), 150 mM NaCl, 10% (vol/vol) glycerol, pH 7.5, whereas ECA_RS10935-LBD was dialyzed into 40 mM KH2PO4/K2HPO4, 10% (vol/vol) glycerol, pH 7.0. Proteins at 15 to 22 μM were placed into the sample cell and titrated with 9.6-μL aliquots of 0.5 to 10 mM ligand solutions made up in dialysis buffer. […] The mean enthalpies from the injection of ligands into the buffer were subtracted from raw data prior to data fitting using the “one binding site model” of the MicroCal version of the ORIGIN software.

[6] = tested on: P. atrosepticum SCRI1043; assay: Capillary chemotaxis assay; format: cell-based, Pectobacterium atrosepticum; conditions: 1 mM chemoeffector
Protocol: as §1

[7] = target: BmrR; design: method as in PMID 21690368; conditions: cited from earlier work
[8] = tested on: E. coli strain UU1250 expressing PctD-Tar; format: cell-based
Protocol: The microfluidic assay was performed as previously described, using a chip with 24 parallel microchannels ([105]). […]. Cells were harvested by centrifugation and washed twice with tethering buffer. Chemoeffectors were dissolved in tethering buffer at a concentration of 50 mM, and the pH was adjusted to 7.0. The chemical source microchannels were filled with 4% (wt/vol) agarose gel to create a semipermeable barrier. E. coli cells were added to the reservoir well and allowed to spread for 30 min into the channels. Compounds were added to the source well and allowed to form a concentration gradient. Cell fluorescence was recorded with a Ti-E inverted microscope system (Nikon Instruments Europe BV, Amsterdam, Netherlands) using a 20×lens objective. Data were analyzed using ImageJ (Wayne Rasband, NIH, USA).

[9] = tested on: Agrobacterium tumefaciens C58; assay: Capillary chemotaxis assay; format: cell-based; conditions: 1 mM acetylcholine
Protocol: as §1, with “Data were corrected with the number of cells that swam into buffer containing capillaries. Data are the means and standard deviations of three biological replicates conducted in triplicate.” left out

[10] = tested on: Dickeya solani MK10; assay: Capillary chemotaxis assay; format: cell-based; conditions: 1 mM acetylcholine
Protocol: as §1, with “Data were corrected with the number of cells that swam into buffer containing capillaries. Data are the means and standard deviations of three biological replicates conducted in triplicate.” left out

[11] = tested on: P. aeruginosa; conditions: cited from earlier work
[12] = target: TlpQ; conditions: cited from earlier work

## C[N+](C)(C)C[C@H](O)CC(=O)[O-] [L-carnitine]
[1]
  growth as carbon source: significant growth
[2]
  chemoattraction: chemoattraction
  concentration of maximal chemotaxis response: 10000 µM
  response threshold of chemotaxis: 100 µM
[3]
  EC50: 31 ± 6 µM
[4]
  KD: No response; also recorded: could not be visualized; also recorded: No binding
  ΔH: No binding
[5]
  Kd: 20 ± 2 µM
  ΔH: -20.5 ± 1.7 kJ/mol
[6]
  chemotaxis response: low but reproducible chemotaxis

## CC(=O)OCC[N+](C)(C)C [acetylcholine]
[2]
  concentration of maximal chemotaxis response: 10 µM
  response threshold of chemotaxis: 1 µM
  maximal accumulation: ~300,000 bacteria per capillary
[7]
  Kd: 6.6 µM
[8]; 50 mM in source channel
  chemoattraction in microfluidic assay: much stronger chemoattraction
[4]
  ΔH: -51 ± 4.18 kJ/mol
[9]
  magnitude of chemotaxis: comparable to that in P. aeruginosa
[10]
  magnitude of chemotaxis: about a third of that observed in P. aeruginosa
[5]
  KD: fails to recognize; also recorded: absence of binding
  ΔH: No binding
[5]; listed as Acetylcholine
  KD: No binding
[6]
  chemotaxis response: failed to respond

## C[N+](C)(C)CC(=O)O [betaine]
[2]
  chemoattraction: comparable to that of L-carnitine
[3]
  EC50: 150 ± 25 µM
[4]
  Kd: 990 ± 59 µM
  KD: low affinity
  ΔH: -10 ± 17.2 kJ/mol
[5]
  Kd: 7.5 ± 0.1 µM
  ΔH: -67.4 ± 0.42 kJ/mol
[6]
  chemotaxis response: low but reproducible chemotaxis

## C[N+](C)(C)CCO [choline]
[2]
  concentration of maximal chemotaxis response: 10 µM
  response threshold of chemotaxis: 0.1 µM
  maximal accumulation: ~300,000 bacteria per capillary
[8]
  chemoattraction in microfluidic assay: much stronger chemoattraction
[3]
  EC50: 0.04 ± 0.01 µM
[4]
  Kd: 2.6 ± 0.1 µM
  ΔH: -84.9 ± 1.3 kJ/mol
[5]
  Kd: 113 ± 16.4 µM
  ΔH: -8.79 ± 0.84 kJ/mol
[6]
  chemotaxis response: low but reproducible chemotaxis

## NCCc1c[nH]cn1 [histamine]
[11]
  lowest concentration giving attraction: 500 nM
[12]
  Kd: 0.64 µM and 1.2 µM
